The test system of assay [1] is Human Peripheral Blood Mononuclear Cells (PBMC). Kind of assay: PBMC cell assay: IL-1β assay with LPS-stimulated human PBMC. It counts as cell-based. As to conditions: mature IL-1β in supernatant, LPS 5 ng/ml, 16-18 hr. An excerpt: IL-1β Assay with a Mixed Population of Human Peripheral Blood Mononuclear Cells (PBMC) or Enriched Adherent Mononuclear Cells
Processing of pre-IL-1β by ICE can be measured in cell culture using a variety of cell sources. Human PBMC obtained from healthy donors provides a mixed population of lymphocyte subtypes and mononuclear cells that produce a spectrum of interleukins and cytokines in response to many classes of physiological stimulators. Adherent mononuclear cells from PBMC provides an enriched source of normal monocytes for selective studies of cytokine production by activated cells.
An initial dilution series of test compound in DMSO or ethanol is prepared, with a subsequent dilution into RPMI-10% FBS media (containing 2 mM L-glutamine, 10 mM HEPES, 50 U and 50 μg/ml pen/strep) respectively to yield drugs at 4×the final test concentration containing 0.4% DMSO or 0.4% ethanol. The final concentration of DMSO is 0.1% for all drug dilutions. A concentration titration which brackets the apparent Ki for a test compound determined in an ICE inhibition assay is generally used for the primary compound screen.
Generally 5-6 compound dilutions are tested and the cellular component of the assay is performed in duplicate, with duplicate ELISA determinations on each cell culture supernatant.
Buffy coat cells isolated from one pint human blood (yielding 40-45 ml final volume plasma plus cells) are diluted with media to 80 ml and LeukoPREP separation tubes (Becton Dickinson) are each overlaid with 10 ml of cell suspension. After 15 min centrifugation at 1500-1800×g, the plasma/media layer is aspirated and then the mononuclear cell layer is collected with a Pasteur pipette and transferred to a 15 ml conical centrifuge tube (Corning). Media is added to bring the volume to 15 ml, gently mix the cells by inversion and centrifuge at 300×g for 15 min. The PBMC pellet is resuspended in a small volume of media, the cells are counted and adjusted to 6×10^6 cells/ml.
For the cellular assay, 1.0 ml of the cell suspension is added to each well of a 24-well flat bottom tissue culture plate (Corning), 0.5 ml test compound dilution and 0.5 ml LPS solution (Sigma #L-3012; 20 ng/ml solution prepared in complete RPMI media; final LPS concentration 5 ng/ml). The 0.5 ml additions of test compound and LPS are usually sufficient to mix the contents of the wells. Three control mixtures are run per experiment, with either LPS alone, solvent vehicle control, and/or additional media to adjust the final culture volume to 2.0 ml. The cell cultures are incubated for 16-18 hr at 37° C. in the presence of 5% CO2.
At the end of the incubation period, cells are harvested and transferred to 15 ml conical centrifuge tubes. After centrifugation for 10 min at 200×g, supernatants are harvested and transferred to 1.5 ml Eppendorf tubes. It may be noted that the cell pellet may be utilized for a biochemical evaluation of pre-IL-1β and/or mature IL-1β content in cytosol extracts by Western blotting or ELISA with pre-IL-1β specific antisera.
PBMC are isolated and prepared as described above. Media (1.0 ml) is first added to wells followed by 0.5 ml of the PBMC suspension. After a one hour incubation, plates are gently shaken and nonadherent cells aspirated from each well. Wells are then gently washed three times with 1.0 ml of media and final resuspended in 1.0 ml media. The enrichment for adherent cells generally yields 2.5-3.0×10^5 cells per well. […]

The target of the next assay is T1, CPP32 Caspase-3 (Homo sapiens, UniProt P42574).
T1 sequence (P42574 29-175 limits assumed): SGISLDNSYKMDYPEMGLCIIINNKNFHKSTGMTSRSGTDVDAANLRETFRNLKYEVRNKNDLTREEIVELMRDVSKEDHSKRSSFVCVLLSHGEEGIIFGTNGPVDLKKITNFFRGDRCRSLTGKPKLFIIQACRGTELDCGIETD
T1 sequence (P42574 176-277 limits assumed): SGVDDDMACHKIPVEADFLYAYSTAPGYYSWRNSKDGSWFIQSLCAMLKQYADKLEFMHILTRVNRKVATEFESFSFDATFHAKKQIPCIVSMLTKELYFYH
Kind of assay: CPP32 (Caspase-3) enzyme inhibition, Ki. It counts as biochemical. As to conditions: in vitro enzyme assay. The text has this:
(§1) Other assays that may be used to evaluate the compounds of this invention are disclosed in PCT application PCT/US96/20843, published Jun. 26, 1997, under publication no. WO 97/22619, which is incorporated herein by reference. Such assays include in vivo bioavailability determinations, pharmacokinetic studies in the mouse, inhibition of ICE homologs, inhibition of apoptosis, in vivo acute assay for anti-inflammatory efficacy, measurement of blood levels, IGIF assays, mouse carrageenan peritoneal inflammation assay, and type II collagen-induced arthritis.
(§2) For determination of enzyme inhibition constants (Ki) or the mode of inhibition (competitive, uncompetitive or noncompetitive), the rate data determined in the enzyme assays at varying inhibitor concentrations are computer-fit to standard enzyme kinetic equations (see I. H. Segel, Enzyme Kinetics, Wiley-Interscience, 1975).

The subject of a further assay is Human whole blood. Kind of assay: Whole blood assay for IL-1β production. It counts as cell-based. As to conditions: LPS 5.0 ng/ml, 16-18 hr at 30° C. The protocol: The whole blood assay is a simple method for measuring the production of IL-1β (or other cytokines) and the activity of potential inhibitors. The complexity of this assay system, with its full complement of lymphoid and inflammatory cell types, spectrum of plasma proteins and red blood cells is an ideal in vitro representation of human in vivo physiologic conditions.
Human whole blood sample (^˜30-50 cc) 1.5 ml Eppendorf tubes
Set incubator or water bath at 30°C. Aliquot 0.25 ml of blood into 1.5 ml Eppendorf tubes. Note: be Sure to invert the whole blood sample tubes after every two aliquots. Differences in replicates may result if is the cells sediment and are not uniformly suspended. Use of a positive displacement pipette will also minimize differences between replicate aliquots.
Prepare drug dilutions in sterile pyrogen-free saline by serial dilution. A dilution series which brackets the apparent Ki for a test compound determined in an ICE inhibition assay is generally used for the primary compound screen. For extremely hydrophobic compounds, prepare compound dilutions in fresh plasma obtained from the same blood donor or in PBS-containing 5% DMSO to enhance solubility.
Add 25 μl test compound dilution or vehicle control and gently mix the sample. Then add 5.0 μl LPS solution (250 ng/ml stocked prepared fresh: 5.0 ng/ml final concentration LPS), and mix again. Incubate the tubes at […] in a water bath for 16-18 hr with occasional mixing. Alternatively, the tubes can be placed in a rotator set at 4 rpm for the same incubation period. This assay should be set up in duplicate or triplicate with the following controls: negative control—no LPS; positive control—no test inhibitor; vehicle control—the highest concentration of DMSO or compound solvent used in the experiment. Additional saline is added to all control tubes to normalize volumes for both control and experimental whole blood test samples.
After the incubation period, whole blood samples are centrifuged for 10 minutes at ^˜2000 rpm in the microfuge, plasma is transferred to a fresh microfuge tube and centrifuged at 1000×g to pellet residual platelets if necessary. Plasma samples may be stored frozen at −70° C. prior to assay for cytokine levels by ELISA.
R & D Systems (6.14 McKinley Place N.E. Minneapolis, Minn. 55413) Quantikine kits may be used for measurement of IL-1β and TNF-α. The assays are performed according to the manufacturer's directions. IL-1β levels of ^˜1-5 ng/ml in positive controls among a range of individuals may be observed. A 1:200 dilution of plasma for all samples is usually sufficient for experiments for ELISA results to fall on the linear range of the ELISA standard curves. It may be necessary to optimize standard dilutions if you observe differences in the whole blood assay. Nerad, J. L. et al., J. Leukocyte Biol., 52, pp. 687-692 (1992).

The target in the next assay is Flice Caspase-8 (Homo sapiens, UniProt Q14790). Kind of assay: Flice (Caspase-8) enzyme inhibition, Ki. It counts as biochemical. The following applies: in vitro enzyme assay.
Source text: as §1, §2

The next assay has as its target T2, ICE Caspase-1 (Homo sapiens, UniProt P29466).
T2 sequence (P29466 120-297 limits assumed): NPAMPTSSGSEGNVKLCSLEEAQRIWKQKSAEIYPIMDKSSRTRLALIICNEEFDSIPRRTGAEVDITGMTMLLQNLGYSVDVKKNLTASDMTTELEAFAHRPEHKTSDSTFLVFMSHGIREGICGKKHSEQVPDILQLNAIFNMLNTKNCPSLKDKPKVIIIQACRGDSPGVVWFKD
T2 sequence (P29466 317-404 limits assumed): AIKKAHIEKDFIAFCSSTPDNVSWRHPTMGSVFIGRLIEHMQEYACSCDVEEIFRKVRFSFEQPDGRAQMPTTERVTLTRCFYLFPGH
Kind of assay: ICE (Caspase-1) enzyme inhibition assay, Ki. It counts as biochemical. The following applies: in vitro enzyme assay. As to the method: This assay is run using an Succinyl-Tyr-Val-Ala-Asp-p-Nitroanilide substrate. Synthesis of analogous substrates is described by L. A. Reiter (Int. J. Peptide Protein Res., 43, pp. 87-96 (1994)). The assay mixture contains:
The visible ICE assay is run in a 96-well microtiter plate. Buffer, ICE and DMSO (if inhibitor is present) are added to the wells in the order listed. The components are left to incubate at room temperature for 15 minutes starting at the time that all components are present in all wells. The microtiter plate reader is set to incubate at 37° C. After the 15 minute incubation, substrate is added directly to the wells and the reaction is monitored by following the release of the chromophore (pNA) at 405-603 nm at 37° C. for 20 minutes. A linear fit of the data is performed and the rate is calculated in mOD/min. DMSO is only present during experiments involving inhibitors, buffer is used to make up the volume to 100 μl in the other experiments.
This assay is run essentially according to Thornberry et al., Nature, 356 pp. 768-774 (1992), using substrate 17 referenced in that article. The substrate is: Acetyl-Tyr-Val-Ala-Asp-amino-4-methylcoumarin (AMC). The following components are mixed:
The assay is run in a 96-well microtiter plate. Buffer and ICE are added to the wells. The components are left to incubate at 37° C. for 15 minutes in a temperature-controlled wellplate. After the 15 minute incubation, the reaction is started by adding substrate directly to the wells and the reaction is monitored at 37° C. for 30 minutes by following the release of the AMC fluorophore using an excitation wavelength for 380 nm and an emission wavelength of 460 nm. A linear fit of the data for each well is performed and a rate is determined in fluorescence units per second.
as §2

Structures are written as SMILES.

Sequence of Flice Caspase-8 (Q14790 217-374 limits assumed): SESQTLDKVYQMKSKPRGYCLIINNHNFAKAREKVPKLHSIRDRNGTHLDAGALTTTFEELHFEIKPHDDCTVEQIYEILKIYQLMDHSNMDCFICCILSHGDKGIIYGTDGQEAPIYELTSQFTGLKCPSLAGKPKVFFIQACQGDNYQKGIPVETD
Sequence of Flice Caspase-8 (Q14790 385-479 limits assumed): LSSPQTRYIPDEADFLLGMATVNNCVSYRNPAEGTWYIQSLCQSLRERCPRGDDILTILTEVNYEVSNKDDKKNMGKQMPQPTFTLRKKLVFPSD

For `CCCN1C(=O)CC[C@H](NC(=O)c2cc(Cl)c(O)c(Cl)c2)C(=O)N1CC(=O)N[C@H](C=O)CC(=O)O` [Compound 11c, 3-{2-[6-(3,5-Dichloro-4-hydroxy-benzoylamino)-3,7-dioxo-2-propyl-[1,2]diazepan-1-yl]-acetylamino}-4-oxo-butyric acid], the IC50 came out at 420 nM in assay [1] and 1450 nM with Human whole blood. Also, the values for the Ki at CPP32 Caspase-3, on Flice Caspase-8 and at ICE Caspase-1 were 22200 nM, 1500 nM and 16 nM, respectively.
On to `CCCN1C(=O)CC[C@H](NC(=O)c2nccc3ccccc23)C(=O)N1CC(=O)N[C@H](C=O)CC(=O)O` [Compound 11b, 3-(2-(6-[(Isoquinoline-1-carbonyl)-amino]-3,7-dioxo-2-propyl-[1,2]diazepan-1-yl)-acetylamino)-4-oxo-butyric acid], for which the IC50 in assay [1] was determined as 1500 nM; in the assay with Human whole blood, 5800 nM. The compound also returned a Ki at ICE Caspase-1 of 120 nM.
As for `CC(C(=O)N[C@H](C=O)CC(=O)O)N1C(=O)[C@@H](NC(=O)c2cc(Cl)c(O)c(Cl)c2)CCC(=O)N1C` (mixture of isomers) [Compound 20, 3-{2-[6-(3,5-Dichloro-4-hydroxy-benzoylamino)-2-methyl-3,7-dioxo-[1,2]diazepan-1-yl]-propionylamino}-4-oxo-butyric acid], the values for the IC50 (in assay [1]; in the assay on Human whole blood) were 540 nM and 830 nM, respectively. On ICE Caspase-1, this compound returned a Ki of 0.9 nM.
For `O=C[C@H](CC(=O)O)NC(=O)CN1C(=O)[C@@H](NC(=O)c2nccc3ccccc23)CCC(=O)N1Cc1ccccc1` [Compound 11a, 3-(2-{2-Benzyl-6-[(isoquinoline-1-carbonyl)-amino]-3,7-dioxo-[1,2]diazepan-1-yl}-acetylamino)-4-oxo-butyric acid], in that order: 1400 nM, 7300 nM and 101 nM.
In the case of `CS(=O)(=O)N1CCC[C@H](NC(=O)c2cc(Cl)c(O)c(Cl)c2)C(=O)N1CC(=O)N[C@H](C=O)CC(=O)O` [Compound 27, 3-{2-[6-(3,5-Dichloro-4-hydroxy-benzoylamino)-2-methanesulfonyl-7-oxo-[1,2]diazepan-1-yl]-acetylamino}-4-oxo-butyric acid], the IC50 is 1000 nM in assay [1] and 1900 nM in the assay on Human whole blood. At ICE Caspase-1, this compound had a Ki of 17 nM.

These data come from US6426413B1, “Inhibitors of caspases” (Vertex Pharmaceuticals Incorporated, priority 1998, dated 2002).
